From PubChem BioAssay (NCI)
Several values for one entry are separate records, joined by “and”; a condition that tells them apart may be missing. Identical values can stand only once.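 Assay format: 96-well plates, 48-hour exposure. The concentration for 50% growth inhibition is given as GI50. TGI: concentration producing complete growth inhibition.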

Tests used:
Assay in all cases: NCI tumour cell line growth inhibition, 48 h
M19-MEL melanoma = test system: M19-MEL melanoma
KM20L2 colon = test system: KM20L2 colon
XF 498 CNS = test system: XF 498 CNS
HOP-18 NSCLC = test system: HOP-18 NSCLC
DMS 114 small cell lung = test system: DMS 114 small cell lung
DMS 273 small cell lung = test system: DMS 273 small cell lung
SNB-78 CNS = test system: SNB-78 CNS
SN12K1 renal = test system: SN12K1 renal
RXF-631 renal = test system: RXF-631 renal
P388/ADR leukemia = test system: P388/ADR leukemia
MDA-N = test system: MDA-N
P388 leukemia = test system: P388 leukemia

| Compound | TGI (M19-MEL melanoma) | TGI (KM20L2 colon) | TGI (XF 498 CNS) | TGI (HOP-18 NSCLC) | TGI (DMS 114 small cell lung) | TGI (DMS 273 small cell lung) | TGI (SNB-78 CNS) | further results |
| --- | --- | --- | --- | --- | --- | --- | --- | --- |
| O=C1c2cc([N+](=O)[O-])cc3cc([N+](=O)[O-])cc(c23)C(=O)N1CCCNCCNCCCN1C(=O)c2cc([N+](=O)[O-])cc3cc([N+](=O)[O-])cc(c23)C1=O | 0.752 µM | 5.09 µM | 0.436 µM | 5.63 µM | 1.38 µM | 0.42 µM | 1.14 µM | – |
| OCC1OC(n2cnc3c2NC=NC[C@H]3O)CC1O (stereo partly drawn) | 460 µM and > 588 µM | > 588 µM | 498 µM | 308 µM and > 588 µM | 455 µM and > 588 µM | 500 µM and > 588 µM | 500 µM and > 588 µM | TGI (SN12K1 renal): 467 µM; GI50 (M19-MEL melanoma): > 588 µM; GI50 (RXF-631 renal): 158 µM and > 588 µM; TGI (RXF-631 renal): 500 µM and > 588 µM; GI50 (KM20L2 colon): > 588 µM; TGI (P388/ADR leukemia): 448 µM; GI50 (HOP-18 NSCLC): 284 µM and > 588 µM; TGI (MDA-N): > 500 µM; TGI (P388 leukemia): 500 µM; GI50 (DMS 114 small cell lung): > 588 µM; GI50 (DMS 273 small cell lung): > 588 µM; GI50 (SNB-78 CNS): > 588 µM |
| COC(=O)/C(=N\NC(=S)NN)C(C(=O)OC)C(=O)C(=O)Nc1cccc(C(F)(F)F)c1 (stereo not drawn) | – | – | – | – | – | – | – | TGI (MDA-N): > 100 µM |
| CN(C)C1=NC2=S(SC(Nc3ccccc3)=N2)S1 (stereo not drawn) | > 100 µM | > 100 µM | 50.5 µM | 91.4 µM | 42.6 µM | 66 µM | > 100 µM | TGI (RXF-631 renal): > 100 µM |
| Cc1c(C(=O)/C=C/c2c(Cl)cccc2Cl)c(=O)n(-c2ccccc2)n1C | > 100 µM | > 100 µM | 71 µM | – | > 100 µM | 33.7 µM | > 100 µM | – |
| O=C(O)c1cccc2cccc(C(=O)O)c12.[Hg] | 23.3 µM | > 100 µM | – | 35.3 µM | 21.5 µM | 31.4 µM | – | GI50 (M19-MEL melanoma): 10.4 µM; GI50 (KM20L2 colon): > 100 µM; GI50 (HOP-18 NSCLC): 18.6 µM; GI50 (DMS 114 small cell lung): 3.8 µM; GI50 (DMS 273 small cell lung): 15.4 µM |
| COC1OC(COS(=O)(=O)c2ccc(C)cc2)C(O)C(OS(=O)(=O)c2ccc(C)cc2)C1OS(=O)(=O)c1ccc(C)cc1 (stereo not drawn) | > 100 µM | > 100 µM | – | > 100 µM | > 100 µM | > 100 µM | > 100 µM | TGI (RXF-631 renal): > 100 µM |
| CCOC(=O)NC(=O)c1cn(CCCOC(=O)NCCCCCCNC(=O)OCCCn2cc(C(=O)NC(=O)OCC)c(=O)[nH]c2=O)c(=O)[nH]c1=O | > 100 µM | > 100 µM | – | > 100 µM | 34.1 µM | > 100 µM | > 100 µM | – |
| CCCCCCCCCCCCCCCCCC(=O)OCC(COC1OC(CS(=O)(=O)O)C(O)C(O)C1O)OC(=O)CCCCCCCCCCCCCCCCC (stereo not drawn) | – | – | – | – | – | – | – | TGI (MDA-N): > 100 µM |
| NC(=O)CCC(NC(=O)Cc1ccccc1)C(=O)O (stereo not drawn) (tested in a mixture with another compound) | > 8130 µM | > 8130 µM | – | > 8130 µM | > 8130 µM | > 2470 µM | – | – |
| CC1=NC(C(C)C)C(=O)O1 (stereo not drawn) | > 100 µM | > 100 µM | > 100 µM | > 100 µM | 56.2 µM | > 100 µM | > 100 µM | TGI (RXF-631 renal): > 100 µM |
| CC(C)NC(=O)OCc1c(COC(=O)NC(C)C)c(-c2ccc(Cl)c(Cl)c2)n2c1CCC2 | 61.3 µM | 58.7 µM | > 62.1 µM | > 83.9 µM | 57.4 µM | > 67 µM | 41.9 µM | TGI (SN12K1 renal): > 100 µM; TGI (P388/ADR leukemia): > 100 µM; TGI (P388 leukemia): > 100 µM |
| N#Cc1cc(N(CCCl)CCCl)c([N+](=O)[O-])cc1[N+](=O)[O-] | – | – | – | – | – | – | – | TGI (MDA-N): > 100 µM |
| CC(=O)OC1CC2C(C)(C)C(=O)C=C[C@]2(C)C2CCC3(C)C(c4ccoc4)[C@@H](O)[C@H]4O[C@]43[C@]12C (stereo partly drawn) | 36.5 µM | 33.4 µM | – | 45.5 µM | 41.9 µM | 89.1 µM | 67.8 µM | – |
| COc1cc(Nc2nc3cc(C(F)(F)F)ccc3nc2-c2ccccc2)cc(OC)c1OC | – | – | 55.2 µM | – | > 100 µM | > 100 µM | > 100 µM | TGI (RXF-631 renal): > 100 µM |
| CC1=CC(=O)c2c(C=O)c(O)c(O)c(C(C)C)c2C1=O | > 100 µM | > 100 µM | 43.9 µM | 58 µM | 51.5 µM | > 88.5 µM | > 100 µM | – |
| O=C1NC(c2c(Cl)cccc2Cl)Nc2ccccc21 (stereo not drawn) | – | – | – | – | – | – | – | TGI (MDA-N): 70.5 µM |
